“Also recorded” adds a separate entry of the source. Peptide text beside a SMILES is read from it. * marks the point of attachment. X1 = CCC(C)(C)C(=O)C(=O)N1CCCC[C@H]1C(=O)O[C@H](CCc1ccccc1)c1cccc(OCC(=O)*)c1; NHTrityl = c1ccc(C(N*)(c2ccccc2)c2ccccc2)cc1; Acetyl(pyridin-2-yl) = O=C(Cc1ccccn1)*; Fmoc = O=C(OCC1c2ccccc2-c2ccccc21)*; ClZ = O=C(OCc1ccccc1Cl)*; Alloc = C=CCOC(=O)*
Experiments:
[1] = Solubility of Aβ-binding peptides in organic solvents; conditions: for solubility of the peptide (in words): running text, organic solvents
Description: After cleavage from the resin with TFA, the solubles of the crude peptides were determined (ca. 3-5 mg/0.5-1.0 ml) in various solvents (LiCl/DMF, DMF or NMP, and/or mixtures with DCM/MeOH/CH3 CN/dioxane).
^a conditions: 3-5 mg peptide/0.5-1.0 mL.
^b conditions tested; NMP, DMF, DMF/LiCl, THF, CH3 CN, DCM, MeOH,

[2] = Solubility of conjugates in organic solvents; conditions: running text
cyclophilin (Cyp) = conditions: cited from earlier work
Aβ peptide = Aβ peptide (Homo sapiens, UniProt P05067); conditions: Tjernberg et al. 1996; cited from earlier work
Aβ peptide, sequence (P05067 672-713 limits assumed): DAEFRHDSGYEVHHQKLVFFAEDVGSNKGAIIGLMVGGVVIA

nerve regeneration = conditions: NGF must be present; Lyons et al. 1994, Steine et al. 1997; cited from earlier work
[3] = Table 11.3, 3-5 mg peptide/0.5-1.0 mL, all free lysines are TFA salts
[4] = Table 11.1, crude peptides for CsA analog coupling, ca. 3-5 mg/0.5-1.0 ml
[5] = Table 11.1, ca. 3-5 mg/0.5-1.0 ml

## CC(C)C[C@H](NC(=O)[C@H](CCCCN)NC(=O)OCC1c2ccccc2-c2ccccc21)C(=O)N[C@H](C(=O)N[C@@H](Cc1ccccc1)C(=O)N[C@@H](Cc1ccccc1)C(N)=O)C(C)C [11.37, Fmoc-KLVFF-NH2]
[1]; [3]
  Solubility (solvent in which the peptide is soluble): DMF
[1]
  solubility of the peptide (in words): completely soluble in DMF

## C=CCOC(=O)NCCCC[C@H](NC(=O)OCC1c2ccccc2-c2ccccc21)C(=O)N[C@@H](CC(C)C)C(=O)N[C@H](C(=O)N[C@@H](Cc1ccccc1)C(=O)N[C@@H](Cc1ccccc1)C(=O)N[C@@H](CCCCN)C(N)=O)C(C)C [11.36, Fmoc-K(Alloc)LVFFK-NH2] (Fmoc-K(Alloc)LVFFK-NH2)
[1]; [3]
  Solubility (solvent in which the peptide is soluble): LiCl/DMF
[1]
  solubility of the peptide (in words): completely soluble in LiCl/DMF

## C=CCOC(=O)NCCCC[C@H](NC(=O)Cc1ccccn1)C(=O)N[C@@H](CC(C)C)C(=O)N[C@H](C(=O)N[C@@H](Cc1ccccc1)C(=O)N[C@@H](Cc1ccccc1)C(=O)N[C@@H](CCCCNC(=O)COc1cccc([C@@H](CCc2ccccc2)OC(=O)[C@@H]2CCCCN2C(=O)C(=O)C(C)(C)CC)c1)C(N)=O)C(C)C [10.9, Pyridyl acetyl-K(alloc)LVFFK-NH2 /FKBP inhibitor conjugate] ({Acetyl(pyridin-2-yl)}-K(Alloc)LVFFK(X1)-NH2)
[2]
  solubility of the conjugate (in words): methanol soluble salt

## [MeLeu(3-OH)^1, MeAla^4,6 ]-CsA
Cyclophilin (Cyp)
  binding to cyclophilin (in words): retains tight-binding to cyclophilin

## CC(C)C[C@H](NC(=O)[C@H](CCCCNC(=O)OCc1ccccc1Cl)NC(=O)OCC1c2ccccc2-c2ccccc21)C(=O)N[C@H](C(=O)N[C@@H](Cc1ccccc1)C(=O)N[C@@H](Cc1ccccc1)C(=O)O)C(C)C [11.26, Fmoc-K(2Cl-Cbz)LVFF-OH]
[1]; [4]
  Solubility (solvent in which the peptide is soluble): DMF
[1]
  solubility of the peptide (in words): completely soluble in DMF after a short period of vortexing

## Ac-QKLVFF-NH2
Aβ peptide
  fibril formation (in words): binds to and inhibits fibril formation

## CC(=O)N[C@@H](CCCCNC(=O)OCc1ccccc1Cl)C(=O)N[C@@H](CC(C)C)C(=O)N[C@H](C(=O)N[C@@H](Cc1ccccc1)C(=O)N[C@@H](Cc1ccccc1)C(=O)O)C(C)C [11.27, Ac-K(2Cl-Cbz)LVFF-OH]
[1]; [4]
  Solubility (solvent in which the peptide is soluble): DMF
[1]
  solubility of the peptide (in words): soluble in DMF but requires a longer vortexing period
[1]; listed as Ac-K(2Cl-Cbz)LVFF-OH
  solubility of the peptide (in words): increased solubility in DMF

## C=CCOC(=O)NCCCC[C@H](NC(=O)[C@H](CCCCN)NC(=O)OCC1c2ccccc2-c2ccccc21)C(=O)N[C@@H](CC(C)C)C(=O)N[C@H](C(=O)N[C@@H](Cc1ccccc1)C(=O)N[C@@H](Cc1ccccc1)C(N)=O)C(C)C [11.35, Fmoc-KK(Alloc)LVFF-NH2] (Fmoc-KK(Alloc)LVFF-NH2)
[1]; [3]
  Solubility grade in LiCl/DMF or LiCl/NMP: medium
[1]
  solubility of the peptide (in words): insoluble in DMF/LiCl

## CC(C)C[C@H](NC(=O)[C@H](CCCCN)NC(=O)Cc1ccccn1)C(=O)N[C@H](C(=O)N[C@@H](Cc1ccccc1)C(=O)N[C@@H](Cc1ccccc1)C(N)=O)C(C)C [11.39, Pyridylacetate-KLVFF-NH2]
[1]; [3]
  Solubility (solvent in which the peptide is soluble): DMF
[1]
  solubility of the peptide (in words): completely soluble in DMF as the double TFA salts

## CC(=O)N[C@@H](CCC(=O)NC(c1ccccc1)(c1ccccc1)c1ccccc1)C(=O)N[C@@H](CCCCNC(=O)OCc1ccccc1Cl)C(=O)N[C@@H](CC(C)C)C(=O)N[C@H](C(=O)N[C@@H](Cc1ccccc1)C(=O)N[C@@H](Cc1ccccc1)C(=O)O)C(C)C [11.24, Ac-Q(Trt)K(2Cl-Cbz)LVFF-OH] (Ac-E(NHTrityl)K(ClZ)LVFF-OH)
[1]; [5]
  Solubility grade in LiCl/DMF or LiCl/NMP: medium
[1]
  solubility of the peptide (in words): no improvement in solubility is observed

## CC(=O)N[C@@H](CCC(=O)O)C(=O)N[C@@H](CCCCNC(=O)OCc1ccccc1Cl)C(=O)N[C@@H](CC(C)C)C(=O)N[C@H](C(=O)N[C@@H](Cc1ccccc1)C(=O)N[C@@H](Cc1ccccc1)C(N)=O)C(C)C [11.29, Ac-EK(2Cl-Cbz)LVFF-NH2] (Ac-EK(ClZ)LVFF-NH2)
[1]; [4]
  Solubility (solvent in which the peptide is soluble): LiCl/DMF
[1]
  solubility of the peptide (in words): completely soluble only in LiCl/DMF
[1]; listed as Ac-EK(2Cl-Cbz)LVFF-NH2
  solubility of the peptide (in words): increased solubility in DMF

## CC(C)C[C@H](NC(=O)[C@H](CCCCNC(=O)OCc1ccccc1Cl)NC(=O)[C@H](CCC(=O)NC(c1ccccc1)(c1ccccc1)c1ccccc1)NC(=O)OCC1c2ccccc2-c2ccccc21)C(=O)N[C@H](C(=O)N[C@@H](Cc1ccccc1)C(=O)N[C@@H](Cc1ccccc1)C(=O)O)C(C)C [11.25, Fmoc-Q(Trt)K(2Cl-Cbz)LVFF-OH] (Fmoc-E(NHTrityl)K(ClZ)LVFF-OH)
[1]; [4]
  Solubility (solvent in which the peptide is soluble): Hot NMP
[1]
  solubility of the peptide (in words): soluble in only hot NMP and remained cloudy in LiCl/DMF

## CC(C)C[C@H](NC(=O)[C@H](CCCCNC(=O)OCc1ccccc1Cl)NC(=O)[C@H](CCC(=O)O)NC(=O)OCC1c2ccccc2-c2ccccc21)C(=O)N[C@H](C(=O)N[C@@H](Cc1ccccc1)C(=O)N[C@@H](Cc1ccccc1)C(N)=O)C(C)C [11.28, Fmoc-EK(2Cl-Cbz)LVFF-NH2] (Fmoc-EK(ClZ)LVFF-NH2)
[1]; [4]
  Solubility (solvent in which the peptide is soluble): DMF
[1]
  solubility of the peptide (in words): soluble in neat DMF without added LiCl

## C=CC[C@@H]1/C=C(\C)C[C@H](C)C[C@H](OC)[C@H]2O[C@@](O)(C(=O)C(=O)N3CCCC[C@H]3C(=O)O[C@H](/C(C)=C/[C@@H]3CC[C@@H](O)[C@H](OC)C3)[C@H](C)[C@@H](O)CC1=O)[C@H](C)C[C@@H]2OC [FK506]
Cyclophilin (Cyp)
  binding to cyclophilin (in words): does not bind to Cyp
Nerve regeneration
  significant neurotrophic activity at concentrations as low as: 1 pM

## C=CCOC(=O)NCCCC[C@H](NC(=O)Cc1ccccn1)C(=O)N[C@@H](CC(C)C)C(=O)N[C@H](C(=O)N[C@@H](Cc1ccccc1)C(=O)N[C@@H](Cc1ccccc1)C(=O)N[C@@H](CCCCN)C(N)=O)C(C)C [11.40, Pyiidylacetate-K(Alloc)LVFFK-NH2] ({Acetyl(pyridin-2-yl)}-K(Alloc)LVFFK-NH2)
[1]; [3]
  Solubility (solvent in which the peptide is soluble): DMF
[1]
  solubility of the peptide (in words): completely soluble in DMF as the double TFA salts

## C=CCOC(=O)NCCCC[C@H](NC(=O)OCC1c2ccccc2-c2ccccc21)C(=O)N[C@@H](CC(C)C)C(=O)N[C@H](C(=O)N[C@@H](Cc1ccccc1)C(=O)N[C@@H](Cc1ccccc1)C(=O)N[C@@H](CCCCNC(=O)COc1cccc([C@@H](CCc2ccccc2)OC(=O)[C@@H]2CCCCN2C(=O)C(=O)C(C)(C)CC)c1)C(N)=O)C(C)C [11.41] (Fmoc-K(Alloc)LVFFK(X1)-NH2)
[2]
  solubility of the conjugate (in words): not completely soluble in DCM, DCM/MeOH, or MeOH

## CC(=O)N[C@@H](CCC(N)=O)C(=O)N[C@@H](CCCCNC(=O)OCc1ccccc1Cl)C(=O)N[C@@H](CC(C)C)C(=O)N[C@H](C(=O)N[C@@H](Cc1ccccc1)C(=O)N[C@@H](Cc1ccccc1)C(=O)O)C(C)C [11.23, Ac-QK(2Cl-Cbz)LVFF-OH]
[1]; [5]
  Solubility grade in LiCl/DMF or LiCl/NMP: medium
[1]
  solubility of the peptide (in words): poorly soluble in all solvents including LiCl/DMF; also recorded: sparingly soluble in LiCl/DMF
